Experiments:
DAP mRNA = DAP mRNA level in transfected MIN6 cells by RT-PCR; type: cell-based, mouse; details: 48 hours culture
Protocol: It was also investigated whether endogenous DAP levels affect the Ang II levels. Dnpep siRNA and control siRNA were purchased (Qiagen, Germantown, Md.). The target sequences were nucleotides 328-348 (SEQ ID NO. 11:
[…]) of mouse Dnpep cDNA (GenBank NM_001110831; SEQ ID NO. 12). MIN6 cells were maintained in DMEM, supplemented with 10% FCS, 10 mM glucose, 2 mmol/l glutamine, 100 U/ml penicillin, and 0.1 mg/ml streptomycin.
(§1) The cells were transfected with […] of Dnpep siRNA of SEQ ID NO. 13, non-silencing control siRNA, or a full-length of Dnpep cDNA (SEQ ID NO. 12) in pCMV-SPORT6 (Open Biosystems, Huntsville, Ala.) by electroporation (BioRad Laboratories, Berkeley, Calif.). A total of 1×10^5 of the cells was seeded into 6-well culture plates coated with poly-L-lysine and cultured for 24 h. The transfection efficiency was approximately 50 percent according to a co-transfected GFP marker.
(§2) After 48 hours culture, cells and culture media were collected. Real-time PCR (RT-PCR) was conducted with the primers (Assay ID Details: Mm00497488_m1*) and the 7900HT Fast Real-Time PCR System (Applied Biosystems, Foster City, Calif.). Western blots were performed using the ECL Reagents (GE, Piscataway, N.J.).

[1] = tested on: Ang II levels in MIN6 cells; experiment: Ang II levels in MIN6 cell lysates and cultured media by Ang II ELISA; type: cell-based, mouse
Protocol: (§3) The DAP gene was either knocked down with DAP RNAi construct or overexpressed by transient transfection of DAP-pCMV in MIN6 cells.
(§4) The full-length DAP construct or the control vector was transfected into MIN6 cells. After culturing for 48 hours, MIN6 cells and the culture media were harvested for measurement of DAP and Ang II levels. Higher expression level of DAP (2.1-fold±0.6) in DAP-pCMV-transfected MIN6 cells compared to that in the vector-transfected cells was detected by Western blots. Ang II levels in MIN6 cell lysates and the cultured media were measured after the transfection and compared to the control transfected cells. Ang II-specific ELISA kit (Cayman Chemical) was used for the measurements.
as §1, §2
Ang II levels were measured using the AssayMax Ang II ELISA Kit (Cayman Chemical, Ann Arbor, Mich.). Briefly, standards or samples were incubated in a 96-well plate with biotinylated anti-Ang II antibody for 2 h. After the washings, Streptavidin-Peroxidase Conjugate was added for 30 min. The final reaction was developed with the substrate chromogen and read at 450 nm by an ELISA reader. Ang II levels in the samples were calculated from an Ang II standard curve run with each assay. Values (mean±SEM) are from at least three independent experiments. ANOVA with Tukey's post hoc test was used for statistical analysis.

DAP = DAP protein level in transfected MIN6 cells by Western blot; type: cell-based, mouse; details: 48 hours culture, Western blots
Protocol: as §3, §4, §1
After 48 hours culture, cells and culture media were collected. […]

Angiotensin II (1-8) = experiment: cell-based or functional assay

Q: How did the “Endogenous DAP mRNA level knocked down” value (DAP mRNA) turn out when “DAP RNAi: Dnpep siRNA (Qiagen, SEQ ID NO. 13) targeting nucleotides 328-348 of mouse Dnpep cDNA (AATGTGGCCTGGATGGCCTCT; listed as DNA, chemistry not given here; the letters are possibly those of the target site; listed as Mus musculus)” was run?
A: The value was 78%.

Q: What about the “Intracellular Ang II levels” value ([1]; MIN6 cell lysates, 48 hours after transfection, mean±SEM) of the same substance?
A: The value was 50±6 pg/mg protein.

Q: And the “Intracellular Ang II levels, increase compared to control cells” value ([1]; MIN6 cell lysates, 48 hours culture)?
A: The value was “up to 74%”.

Q: What about the “Extracellular Ang II levels, increase compared to control cells” value ([1]; MIN6 culture media, 48 hours culture) of the same substance?
A: The value was 57%.

Q: And the “Extracellular Ang II levels” value ([1]; MIN6 cultured media, 48 hours after transfection, mean±SEM)?
A: Its value is 52±5.3 pg/mg protein.

Q: And the “DAP protein level decrease compared to control cells” value (DAP)?
A: Its value is 70%.

Q: With “aspartyl aminopeptidase (DAP), mouse, gene product of Dnpep (from UniProt Q9Z2W0 1-473) (enzyme)” as the substance, how does the extracellular Ang II level in DAP RNAi-transfected MIN6 cells against control cells (Ang II ELISA) (percent increase) (Angiotensin II (1-8)) read?
A: The extracellular Ang II level in DAP RNAi-transfected MIN6 cells against control cells (Ang II ELISA) (percent increase) was 57.

Q: What about the extracellular Ang II level in DAP-transfected MIN6 cells against control cells (Ang II ELISA) (percent lower) (Angiotensin II (1-8)) of the same substance?
A: Its extracellular Ang II level in DAP-transfected MIN6 cells against control cells (Ang II ELISA) (percent lower) is 35.

Q: And the intracellular Ang II level in DAP RNAi-transfected MIN6 cells against control cells (Ang II ELISA) (percent increase) (Angiotensin II (1-8))?
A: Its intracellular Ang II level in DAP RNAi-transfected MIN6 cells against control cells (Ang II ELISA) (percent increase) is 74.

Q: And the intracellular Ang II level in DAP-transfected MIN6 cells against vector-treated cells (Ang II ELISA) (percent lower) (Angiotensin II (1-8))?
A: Its intracellular Ang II level in DAP-transfected MIN6 cells against vector-treated cells (Ang II ELISA) (percent lower) is 28.

Source: patent US20120071544A1, “Methods For Identifying Compounds Effective To Increase The Expression Or Activity Of Aspartyl Aminopeptidase In Mammalian Pancreatic Islet Cells, And Methods For Decreasing Angiotensin II Levels In Mammalian Pancreatic Islet Cells” (priority 2010, published 2012)
